From PubChem BioAssay AID1259407 (Chemical Carcinogenesis Research Information System (CCRIS), 2018) come the findings set out here.

The structures appear in SMILES notation. Calls of active or inactive are those of the source. How the calls were made is not given here.

The data set concerns CCRIS mutagenicity, Ames/micronucleus/aberration tests. Briefly: CCRIS mutagenicity studies.
Setting [1] is: Test System: AMES SALMONELLA TYPHIMURIUM, Strain/Indicator: TA98, Metabolic Activation: NONE, Method: PREINCUBATION
[2] abbreviates: Test System: AMES SALMONELLA TYPHIMURIUM, Strain/Indicator: TA100, Metabolic Activation: NONE, Method: PREINCUBATION

On to `Oc1ccc(Nc2ccc3ccccc3c2)cc1`, for which the mutagenic call (Test System: AMES SALMONELLA TYPHIMURIUM, Strain/Indicator: TA97, Metabolic Activation: HAMSTER, LIVER, S-9, AROCLOR 1254 (10%), Method: PREINCUBATION) was “inactive; negative”; the mutagenic call (Test System: AMES SALMONELLA TYPHIMURIUM, Strain/Indicator: TA97, Metabolic Activation: HAMSTER, LIVER, S-9, AROCLOR 1254 (30%), Method: PREINCUBATION) is “inactive; negative”; the mutagenic call (Test System: AMES SALMONELLA TYPHIMURIUM, Strain/Indicator: TA97, Metabolic Activation: NONE, Method: PREINCUBATION) was “inactive; negative”; the mutagenic call (Test System: AMES SALMONELLA TYPHIMURIUM, Strain/Indicator: TA97, Metabolic Activation: RAT, LIVER, S-9, AROCLOR 1254 (10%), Method: PREINCUBATION) was “inactive; negative”; the mutagenic call (Test System: AMES SALMONELLA TYPHIMURIUM, Strain/Indicator: TA97, Metabolic Activation: RAT, LIVER, S-9, AROCLOR 1254 (30%), Method: PREINCUBATION) is “inactive; negative”; the mutagenic call (Test System: AMES SALMONELLA TYPHIMURIUM, Strain/Indicator: TA98, Metabolic Activation: HAMSTER, LIVER, S-9, AROCLOR 1254 (10%), Method: PREINCUBATION) was “inactive; negative”. For the same compound, the mutagenic call (Test System: AMES SALMONELLA TYPHIMURIUM, Strain/Indicator: TA98, Metabolic Activation: HAMSTER, LIVER, S-9, AROCLOR 1254 (30%), Method: PREINCUBATION) is “inactive; negative”; the mutagenic call under setting [1] was “inactive; negative”; the mutagenic call (Test System: AMES SALMONELLA TYPHIMURIUM, Strain/Indicator: TA98, Metabolic Activation: RAT, LIVER, S-9, AROCLOR 1254 (10%), Method: PREINCUBATION) is “inactive; negative”; the mutagenic call (Test System: AMES SALMONELLA TYPHIMURIUM, Strain/Indicator: TA98, Metabolic Activation: RAT, LIVER, S-9, AROCLOR 1254 (30%), Method: PREINCUBATION) was “inactive; negative”; the mutagenic call (Test System: AMES SALMONELLA TYPHIMURIUM, Strain/Indicator: TA100, Metabolic Activation: HAMSTER, LIVER, S-9, AROCLOR 1254 (10%), Method: PREINCUBATION) is “inactive; negative”; the mutagenic call (Test System: AMES SALMONELLA TYPHIMURIUM, Strain/Indicator: TA100, Metabolic Activation: HAMSTER, LIVER, S-9, AROCLOR 1254 (30%), Method: PREINCUBATION) was “inactive; negative”. Besides, the mutagenic call runs as follows: under setting [2], “inactive; negative”; (Test System: AMES SALMONELLA TYPHIMURIUM, Strain/Indicator: TA100, Metabolic Activation: RAT, LIVER, S-9, AROCLOR 1254 (10%), Method: PREINCUBATION) “inactive; negative”; (Test System: AMES SALMONELLA TYPHIMURIUM, Strain/Indicator: TA100, Metabolic Activation: RAT, LIVER, S-9, AROCLOR 1254 (30%), Method: PREINCUBATION) “inactive; negative”; (Test System: AMES SALMONELLA TYPHIMURIUM, Strain/Indicator: TA1535, Metabolic Activation: HAMSTER, LIVER, S-9, AROCLOR 1254 (10%), Method: PREINCUBATION) “inactive; negative”; (Test System: AMES SALMONELLA TYPHIMURIUM, Strain/Indicator: TA1535, Metabolic Activation: HAMSTER, LIVER, S-9, AROCLOR 1254 (30%), Method: PREINCUBATION) “inactive; negative”; (Test System: AMES SALMONELLA TYPHIMURIUM, Strain/Indicator: TA1535, Metabolic Activation: NONE, Method: PREINCUBATION) “inactive; negative”. Moreover, the mutagenic call is, setting by setting: (Test System: AMES SALMONELLA TYPHIMURIUM, Strain/Indicator: TA1535, Metabolic Activation: RAT, LIVER, S-9, AROCLOR 1254 (10%), Method: PREINCUBATION) “inactive; negative”; (Test System: AMES SALMONELLA TYPHIMURIUM, Strain/Indicator: TA1535, Metabolic Activation: RAT, LIVER, S-9, AROCLOR 1254 (30%), Method: PREINCUBATION) “inactive; negative”; (Test System: AMES SALMONELLA TYPHIMURIUM, Strain/Indicator: TA1537, Metabolic Activation: HAMSTER, LIVER, S-9, AROCLOR 1254 (30%), Method: PREINCUBATION) “inactive; negative”; (Test System: AMES SALMONELLA TYPHIMURIUM, Strain/Indicator: TA1537, Metabolic Activation: NONE, Method: PREINCUBATION) “inactive; negative”; (Test System: AMES SALMONELLA TYPHIMURIUM, Strain/Indicator: TA1537, Metabolic Activation: RAT, LIVER, S-9, AROCLOR 1254 (30%), Method: PREINCUBATION) “inactive; negative”.

In the case of `Cc1c(N)cccc1N=[N+]([O-])c1cccc(N)c1C`, the mutagenic call is, setting by setting: under setting [1], “inactive; negative”; (Test System: AMES SALMONELLA TYPHIMURIUM, Strain/Indicator: TA98, Metabolic Activation: RAT, LIVER, S-9, PHENOBARBITAL AND 5,6-BENZOFLAVONE, Method: PREINCUBATION) “active; positive”; under setting [2], “inactive; negative”; (Test System: AMES SALMONELLA TYPHIMURIUM, Strain/Indicator: TA100, Metabolic Activation: RAT, LIVER, S-9, PHENOBARBITAL AND 5,6-BENZOFLAVONE, Method: PREINCUBATION) “inactive; negative”.

As to `CN(N=O)C(=O)Oc1ccccc1Cl`, the mutagenic call (Test System: E. COLI WP2, Strain/Indicator: WP2, Metabolic Activation: NONE, Method: STANDARD PLATE) is “active; positive”.

`OC[C@H]1O[C@@H](n2cnc3c(NO)ncnc32)[C@H](O)[C@@H]1O`: the mutagenic call reads like this: (Test System: AMES SALMONELLA TYPHIMURIUM, Strain/Indicator: TA98, Metabolic Activation: NONE, Method: STANDARD PLATE) “active; positive”; (Test System: AMES SALMONELLA TYPHIMURIUM, Strain/Indicator: TA100(TN5-1,8-DNP1011), Metabolic Activation: NONE, Method: STANDARD PLATE) “active; positive”; (Test System: AMES SALMONELLA TYPHIMURIUM, Strain/Indicator: TA100(TN5-1,8-DNP1012), Metabolic Activation: NONE, Method: STANDARD PLATE) “active; positive”; (Test System: AMES SALMONELLA TYPHIMURIUM, Strain/Indicator: TA100, Metabolic Activation: NONE, Method: STANDARD PLATE) “active; positive”; (Test System: AMES SALMONELLA TYPHIMURIUM, Strain/Indicator: TA102, Metabolic Activation: NONE, Method: STANDARD PLATE) “inactive; negative”.
